Assay results taken from patent US12304894B2, “Derivatives of adamantyl oxadiazoles and pharmaceutically acceptable solvates, hydrates and salts thereof, pharmaceutical composition comprising same, synthesis method, suitable for use as effective and selective inhibitors of the reductase activity of the enzyme 11-beta dehydrogenase type 1 …” (PONTIFICIA UNIVERSIDAD CATOLICA DE CHILE, priority 2019, dated 2025).
≈ marks a conversion by molar mass, not a printed value.

Tests used:
[1] = Aqueous solubility in the gastrointestinal pH range; type: physicochemical
Method: A stock solution of 100 mM was prepared in DMSO that was added in volumes established on the buffers until the appearance of turbidity was observed. These solutions were prepared in triplicate in final DMSO concentrations of 0.5 to 5.0% V/V of each buffer, then were incubated at 37° C. with vigorous stirring for 48 hours, then another 48 hours but without stirring. The samples were centrifuged and the supernatant was diluted with mobile phase chromatography to be later analyzed by μHPLC-Ms/Ms. The solubility value at each pH was obtained from the intercept of the straight line solubility versus % DMSO. Table 6 presents the aqueous solubility values of BD-40 in the pH range 1.2-6.8.

[2] = system: 11β-HSD2; assay: 11β-HSD2 oxidase activity in human hepatic microsomes (HTRF Cortisol Kit); type: biochemical; details: remaining activity at 100 nM compound
Method: Determination of 11β-HSD2 Oxidase Activity
The concentration of cortisone produced in the reaction, with and without the compounds, was determined using the Cortisol Kit (Cisbio) product in order to evaluate the 11β-HSD2 oxidase activity.
As in the previous assays, the compounds are reconstituted in DMSO to 10 mM stock, in order to subsequently make serial dilutions to determine the efficacy curve.
To perform the assay, the HTRF plate was prepared containing Tris buffer, 100 nM cortisol and 200 μM NAD^+. Enzyme is added to the corresponding wells in a 4:1 ratio, respectively, and incubated for 2 hours at 37° C. For the kit control, two wells are added only with Tris buffer.
After the incubation time, the reagents of the Cortisol kit, Cortisol d2 and Cortisol cryptate, in a sample ratio, Cortisol d2 and cortisol cryptate 2:1:1 are added. For the negative control, cortisol d2 was replaced in some wells by the kit's reconstitution buffer. The plate was incubated for 1 hour at room temperature to later read at 665 and 620 nm.
For this purpose, the reaction buffer was prepared and subsequently, in a plate for HTRF, the reaction buffer, the microsomes in a concentration of 5 mg/mL and the compound in a ratio of 3:1:1, respectively, were added to each well. In the case of reaction controls, the reaction buffer without cortisol and without compound is included for the negative control. For the positive control, no compound is added, and for the kit controls, only the reaction buffer is added to the negative and positive control wells.
After incubating the plate for 2 hours, the reagents of the cortisol kit, cortisol d2 and cortisol cryptate, are added to the corresponding wells as indicated above. They are then incubated at room temperature for 1 hour to finally read the 665 and 620 nm fluorescence.

[3] = system: Madin-Darby Canine Kidney (MDCK) cells transfected with human P-glycoprotein (hMDR1); details: MDCK-MDR1
Method: Madin-Darby Canine Kidney (MDCK) cells were used in this assay, which are stably transfected with the gene encoding human P-glycoprotein (hMDR1). These cells were cultured in DMEM medium (Dulbecco's Modified Eagle's Medium) high in glucose and supplemented with 10% fetal bovine serum, 1% 5 mM pyruvate, 1% non-essential amino acids solution X5, 20,000 IU/mL of penicillin G and 20,000 IU/mL of streptomycin, a temperature of 37° C., 90% relative humidity and 5% CO2. These cells were seeded in sterile plates on the fourth day of growth or until reaching 90% confluence.
Ten days before carrying out the transport analysis, cells were seeded in Transwells® inserts (1.12 cm2) at a density of 60,000 cells/cm^2. The monolayers were supplemented every two days with fresh culture medium. […] In parallel, B-A experiments were performed (1.5 mL of donor solution in basolateral compartment and 0.5 mL buffer in apical). The monolayers were incubated while stirring (50 rpm) at a temperature of 37° C. for a period of 2 hours. Additionally, this assay was performed in the presence of the Pgp inhibitor elacridar (5 μM). After the stir time, the inserts were removed, the compartments were sampled and the cells were transferred to HPLC vials by diluting these samples with mobile phase chromatography. These samples were kept at −20° C. until their analysis time. […]

[4] = In vivo pharmacokinetics in mice, IV and oral; design: species or system male C57BL/6J mice
Method: The animals were classified according to weight and divided into the following groups (Table 7):
20% Kolliphor and 50% PBS at a concentration of 1 mg/mL. From this solution, a 0.4 mg/mL dilution was made for IV administration.
In intravenous (IV) administration, after each compound was administered to the mice, the mice were separated into groups of 3 and were euthanized at times 5, 10, 15, 30, 60, 120, 240, 260, 480 and 1440 minutes. For oral administration (V.O), the mice were separated into groups of 3 and were euthanized at times 15, 30, 60, 120, 240, 260, 480 and 1440 minutes. To obtain zero-time assays, mice were used to which no compound was administered.
Whole blood was obtained from each animal (in microtubes with EDTA); these samples were centrifuged at 9000 g at a temperature of 4° C. for a period of 5 minutes, obtaining the plasma which was stored at −80° C.
In addition, organs such as brain, liver, muscle, epididymal fat, heart and kidney were obtained from the animals, which were frozen in liquid nitrogen and stored at −80° C.
Plasma samples and brain, liver, epididymal fat, and muscle (tissue) samples were analyzed. 2× in volume of water (weight/volume) was added to the tissue samples while 4× in volume of water (weight/volume) was added to the muscle mixture, after which they were homogenized using a Bullet Blender equipment (Next Advance, USA).
All samples were analyzed as a single point by LC-MS/MS in accordance with the analytical methodology already standardized and presented in application example 3.
To begin, a calibration curve was run. For this purpose, the controls, the plasma and organ samples were prepared by adding 180 μL of cold acetonitrile to these, then vortexed for 15 seconds and centrifuged at 6100 g for 30 seconds at 4° C. The supernatant which was obtained from this procedure was diluted in 2 volumes of 0.2% formic acid in water and transferred to a vial that will allow it to be injected into LC-MS/MS.
The conditions for the LC-MS/MS analysis were: • HPLC: Eksigent UltraLC 100 • Autosampler: Eksigent UltraLC 100-XL at RT • Mobile phase: A-0.1% formic acid in water; B-0.1% formic acid in acetonitrile. • Column: YMC Triart 1.9 μm; 2.0×50 mm • Injection volume: 2 μL • Gradient: 5% B for 0.25 min→5-95% B for 0.75 min→95% B for 2 min→95-5% B for 0.25 min→5% B for 0.25 min • Flow: 0.6 mL/min • Mass Spectrometer: Applied Biosystems/SCIEX QTRAP 4500 • Interface: TurbolonSpray (ESI) at 600° C. • Software: Analyst.

## Cc1cccc(CCc2nc(C34CC5CC(CC(C5)C3)C4)no2)c1 [BD-40, 1-(3-methylphenyl)-2-(3-adamantyl-1,2,4-oxadiazol-5-yl)ethane]
[1]; pH 1.7, 37° C.
  Solubility: 96.16 µg/mL (≈ 298 µM)
[1]; pH 4.5, 37° C.
  Solubility: 64.12 µg/mL (≈ 199 µM)
[1]; pH 6.8, 37° C.
  Solubility: 59.23 µg/mL (≈ 184 µM)
[2]
  11b-HSD2 oxidase (activ rem %) Microcosms 100 nM: 97.9%
[3]
  Papp compared with high permeability marker minoxidil: higher than those of the high permeability marker minoxidil
[4]; IV, 2 mg/Kg, plasma
  AUCExtr: 5.240%
  AUCInf: 623 ng·h/mL
  AUCfinal: 649 ng·h/mL
  C0/Cmax: 2200 ng/mL
  CL: 53.5 mL/min/kg
  MRTInf: 87.6 min
  Vz: 15.30 L/kg
  t1/2: 198 min
[4]; PO, dose 3 mg/Kg, plasma
  AUCExtr: 3.6%
  AUCInf: 596 ng·h/mL
  AUCfinal: 575 ng·h/mL
  C0/Cmax: 393 ng/mL
  CL: 280 mL/min/kg
  F: 19.1%
  Vz: 168 L/kg
  t1/2: 32.3 min
  tmax: 30 min
[4]; administered intravenously, plasma
  mean time (of elimination) of the drug: 3.30 h
[4]; administered orally, plasma
  mean time (of elimination) of the drug: 0.864 h
[4]; oral and intravenous administration
  detection in tissues (brain, liver, fat, muscle): can be detected in the different tissues
[4]; plasma
  bioavailability / apparent availability: good bioavailability
